Measured values as given in the supplement of paper PMC11061612.

Assays:
Assay in all cases: combination Emax (second highest fraction inhibited in the dose matrix, 72 h); higher = more inhibition; extreme values may be limits of the assay
[1] = system: SK-LMS-1 (Other Solid Carcinomas)
Outline: (§1)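 Cell lines in DMEM/F12 or RPMI with 10% FBS were plated in 1536-well plates, held 24 hours at 37°C, 5% CO2, then given two-drug dose matrices for 72 hours (DMSO typically 0.2%). Viability was read by CellTiter-Glo 2.0 luminescence and scaled as inhibition from 0 (vehicle wells) to 1 (blank wells). Combination Emax is the second-highest inhibition in the matrix; Bliss excess is observed combination effect minus expected EA + EB − EA·EB, EA and EB being single-agent effects.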

[2] = system: EKVX (Non-Small Cell Lung Carcinoma)
Outline: as §1

[3] = system: MEG-01 (Chronic Myelogenous Leukemia)
Outline: as §1

[4] = system: D-283MED (Other Solid Carcinomas)
Outline: as §1

[5] = system: ETK-1 (Biliary Tract Carcinoma)
Outline: as §1

[6] = system: SK-UT-1 (Other Solid Carcinomas)
Outline: as §1

[7] = system: TYK-nu (Ovarian Carcinoma)
Outline: as §1

[8] = system: DOK (Oral Cavity Carcinoma)
Outline: as §1

[9] = system: WSU-DLCL2 (B-Cell Non-Hodgkin's Lymphoma)
Outline: as §1

MCF7 (Breast Carcinoma) = system: MCF7 (Breast Carcinoma)
Outline: as §1

A172 (Glioblastoma) = system: A172 (Glioblastoma)
Outline: as §1

[10] = system: HCC-827 (Lung Adenocarcinoma)
Outline: as §1

CS1 (Chondrosarcoma) = system: CS1 (Chondrosarcoma)
Outline: as §1

H4 (Low Grade Glioma) = system: H4 (Low Grade Glioma)
Outline: as §1

[11] = system: SW48 (Colorectal Carcinoma)
Outline: as §1

[12] = system: SW948 (Colorectal Carcinoma)
Outline: as §1

SK-MEL-1 (Melanoma) = system: SK-MEL-1 (Melanoma)
Outline: as §1

HCC38 (Breast Carcinoma) = system: HCC38 (Breast Carcinoma)
Outline: as §1

EW-22 (Ewing's Sarcoma) = system: EW-22 (Ewing's Sarcoma)
Outline: as §1

[13] = system: JHH-6 (Hepatocellular Carcinoma)
Outline: as §1

Compound	combination Emax [1]	combination Emax [2]	combination Emax [3]	combination Emax [4]	combination Emax [5]	combination Emax [6]	combination Emax [7]	combination Emax [8]	combination Emax [9]	combination Emax (MCF7 (Breast Carcinoma))	combination Emax (A172 (Glioblastoma))	combination Emax [10]	combination Emax (CS1 (Chondrosarcoma))	combination Emax (H4 (Low Grade Glioma))	combination Emax [11]	combination Emax [12]	combination Emax (SK-MEL-1 (Melanoma))	combination Emax (HCC38 (Breast Carcinoma))	combination Emax (EW-22 (Ewing's Sarcoma))	combination Emax [13]
CN(CCO)CC[C@H](CSc1ccccc1)Nc1ccc(S(=O)(=O)NC(=O)c2ccc(N3CCC([C@@H](O)c4ccccc4-c4ccc(Cl)cc4)CC3)cc2)cc1S(=O)(=O)C(F)(F)F [AZD4320] + C1CN(CCC1(C(=O)N[C@@H](CCO)C2=CC=C(C=C2)Cl)N)C3=NC=NC4=C3C=CN4 [Capivasertib] (first compound max 1 µM, 7x7, partner max 3 µM)	0.305	0.269	0.901	0.763	0.175	0.226	0.244	0.39	1	0.279	0.158	0.201	0.491	0.404	0.732	0.624	0.419	0.848	0.851	0.153
CN(CCO)CC[C@H](CSc1ccccc1)Nc1ccc(S(=O)(=O)NC(=O)c2ccc(N3CCC([C@@H](O)c4ccccc4-c4ccc(Cl)cc4)CC3)cc2)cc1S(=O)(=O)C(F)(F)F [AZD4320] + C=CCn1c(=O)c2cnc(Nc3ccc(N4CCN(C)CC4)cc3)nc2n1-c1cccc(C(C)(C)O)n1 [AZD1775] (first compound max 1 µM, partner max 1 µM)	0.778	0.244	0.994	0.985	0.618	0.693	0.65	0.504	1	0.51	0.491	0.301	0.647	1	0.825	0.745	0.584	0.903	0.988	0.271
CN(CCO)CC[C@H](CSc1ccccc1)Nc1ccc(S(=O)(=O)NC(=O)c2ccc(N3CCC([C@@H](O)c4ccccc4-c4ccc(Cl)cc4)CC3)cc2)cc1S(=O)(=O)C(F)(F)F [AZD4320] + CCN(CCO)CCCOc1ccc2c(Nc3cc(CC(=O)Nc4cccc(F)c4)[nH]n3)ncnc2c1 [AZD2811] (first compound max 1 µM, 7x7, partner max 1 µM)	0.845	0.155	0.93	0.973	0.26	0.414	0.27	0.747	0.907	0.248	0.457	0.176	0.683	0.543	1	0.545	0.453	0.802	1	0.391
CN(CCO)CC[C@H](CSc1ccccc1)Nc1ccc(S(=O)(=O)NC(=O)c2ccc(N3CCC([C@@H](O)c4ccccc4-c4ccc(Cl)cc4)CC3)cc2)cc1S(=O)(=O)C(F)(F)F [AZD4320] + CN(C)CCCOc1ccc(-c2ccc3ncc4c(c3c2)n(C2CCOCC2)c(=O)n4C)cn1 [AZD0156] (first compound max 1 µM, 7x7, partner max 1 µM)	0.371	0.155	0.898	0.818	0.112	0.0694	0.165	0.136	0.581	0.234	0.176	0.22	0.427	0.247	0.517	0.248	0.498	0.812	0.897	0.129
CN(CCO)CC[C@H](CSc1ccccc1)Nc1ccc(S(=O)(=O)NC(=O)c2ccc(N3CCC([C@@H](O)c4ccccc4-c4ccc(Cl)cc4)CC3)cc2)cc1S(=O)(=O)C(F)(F)F [AZD4320] + C[C@@H]1COCCN1C2=NC(=NC(=C2)C3(CC3)[S@](=N)(=O)C)C4=C5C=CNC5=NC=C4 [AZD6738] (first compound max 1 µM, 7x7, partner max 10 µM)	0.866	0.252	0.983	0.992	0.675	0.919	0.803	0.587	0.989	0.656	0.731	0.551	0.83	0.9	0.954	0.563	0.597	0.933	1	0.443
CN(CCO)CC[C@H](CSc1ccccc1)Nc1ccc(S(=O)(=O)NC(=O)c2ccc(N3CCC([C@@H](O)c4ccccc4-c4ccc(Cl)cc4)CC3)cc2)cc1S(=O)(=O)C(F)(F)F [AZD4320] + C[C@@H](Nc1cc(F)cc(F)c1)c1cc(C(=O)N(C)C)cc2c(=O)cc(N3CCOCC3)oc12 [AZD8186] (first compound max 1 µM, 7x7, partner max 3 µM)	0.94	0.308	0.773	0.928	0.324	0.273	0.645	0.301	0.978	0.544	0.327	0.393	0.839	0.583	0.914	0.485	0.722	0.884	1	0.326
CN(CCO)CC[C@H](CSc1ccccc1)Nc1ccc(S(=O)(=O)NC(=O)c2ccc(N3CCC([C@@H](O)c4ccccc4-c4ccc(Cl)cc4)CC3)cc2)cc1S(=O)(=O)C(F)(F)F [AZD4320] + Cc1cc2ncnn2cc1Nc1ncc2c(n1)n(C1CCOCC1)c(=O)n2C [AZD7648] (first compound max 1 µM, 7x7, partner max 10 µM)	0.447	0.237	0.925	0.923	0.209	0.163	0.344	0.362	0.744	0.367	0.262	0.182	0.347	0.204	0.632	0.393	0.606	0.873	0.905	0.174
Cc1c2c(nn1C)CSCc1cc(n(C)n1)CSc1cc(c3ccccc3c1)OCCCc1c(C(=O)O)n(C)c3c-2c(Cl)ccc13 [AZD5991] + C1CN(CCC1(C(=O)N[C@@H](CCO)C2=CC=C(C=C2)Cl)N)C3=NC=NC4=C3C=CN4 [Capivasertib] (first compound max 1 µM, 7x7, partner max 3 µM)	0.302	0.301	0.361	0.367	0.254	0.24	0.36	0.383	1	0.687	0.234	0.314	0.255	0.495	0.28	0.569	0.118	0.506	0.624	0.278
Cc1c2c(nn1C)CSCc1cc(n(C)n1)CSc1cc(c3ccccc3c1)OCCCc1c(C(=O)O)n(C)c3c-2c(Cl)ccc13 [AZD5991] + C=CCn1c(=O)c2cnc(Nc3ccc(N4CCN(C)CC4)cc3)nc2n1-c1cccc(C(C)(C)O)n1 [AZD1775] (first compound max 1 µM, partner max 1 µM)	0.431	0.316	0.927	0.971	0.59	0.613	0.761	0.758	1	0.652	0.609	0.401	0.563	0.9	0.402	0.714	0.402	0.657	0.789	0.326
Cc1c2c(nn1C)CSCc1cc(n(C)n1)CSc1cc(c3ccccc3c1)OCCCc1c(C(=O)O)n(C)c3c-2c(Cl)ccc13 [AZD5991] + CC1(C)CCC(CN2CCN(c3ccc(C(=O)NS(=O)(=O)c4ccc(NCC5CCOCC5)c([N+](=O)[O-])c4)c(Oc4cnc5[nH]ccc5c4)c3)CC2)=C(c2ccc(Cl)cc2)C1 [Venetoclax] (first compound max 1 µM, 7x7, partner max 1 µM)	0.115	0.138	0.837	0.639	0.152	0.138	0.233	0.758	1	0.745	0.268	0.182	0.16	0.726	0.339	0.236	0.22	0.463	0.839	0.0668
Cc1c2c(nn1C)CSCc1cc(n(C)n1)CSc1cc(c3ccccc3c1)OCCCc1c(C(=O)O)n(C)c3c-2c(Cl)ccc13 [AZD5991] + CCN(CCO)CCCOc1ccc2c(Nc3cc(CC(=O)Nc4cccc(F)c4)[nH]n3)ncnc2c1 [AZD2811] (first compound max 1 µM, 7x7, partner max 1 µM)	0.272	0.226	0.758	0.639	0.294	0.367	0.534	0.883	1	0.692	0.474	0.245	0.315	0.586	0.984	0.587	0.312	0.521	0.88	0.257
